According to patent US20230061736A1, “GPR119 AGONISTS” (Kallyope, Inc., priority 2019, published 2023):
Where a name gives a salt, the structure may show the parent alone.

Target: T1, human GPR119 (hGPR119) (Homo sapiens, UniProt Q8TDV5)
T1 construct: expressed in transfected cells
T1 sequence (Q8TDV5 1-335): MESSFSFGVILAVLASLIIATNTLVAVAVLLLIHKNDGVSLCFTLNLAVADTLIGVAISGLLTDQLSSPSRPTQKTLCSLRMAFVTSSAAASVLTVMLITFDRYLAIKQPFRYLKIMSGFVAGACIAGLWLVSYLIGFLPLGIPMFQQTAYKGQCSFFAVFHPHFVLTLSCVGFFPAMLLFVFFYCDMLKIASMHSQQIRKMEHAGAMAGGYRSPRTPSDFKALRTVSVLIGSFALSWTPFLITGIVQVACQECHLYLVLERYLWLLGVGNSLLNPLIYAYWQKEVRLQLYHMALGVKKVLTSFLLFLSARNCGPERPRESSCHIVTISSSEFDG
Experiment: cAMP accumulation assay (cAMP Gs dynamic HTRF kit)
Type: cell-based
Details: CHO-K1 cells stably expressing hGPR119, 4-parameter fit; for Emax: 1 h, % activity normalized to Max/Min controls; for EC50: cAMP accumulation
Procedure: CHO-K1 cells stably expressing human GPR119 (hGPR119) were prepared by transfection of a GPR119-carrying plasmid using Lipofectamine 2000 (following manufacturer instructions). A stable cell line was established using the limiting dilution method with geneticine selection. Assay-ready frozen (ARF) cells were prepared and used throughout the study.
The assay was performed in a 384-well plate format using the cAMP Gs dynamic assay kit from Cisbio. ARF cells expressing hGPR119 were thawed, washed and then resuspended in cAMP stimulation buffer at a cell density of 1.1×10^6 cells/mL. Cells were plated at a density of ˜10,000 cells/well (9 μL/well). Dose response curves for the tested compounds were prepared in a cAMP stimulation buffer, containing 0.1% Tween 80 at 4 fold the final concentration. The compounds were then transferred to the cell plates using BRAVO (3 μL/well) and the plates were incubated for 60 minutes at 37° C./5% CO2. Detection buffer (10 μL, prepared as described in the cAMP Gs dynamic kit) were added to each well, and the plates were incubated at ambient temperature for 1 hr.
RT-FRET was measured using a ClarioSTAR plate reader, calculating the ratio between emissions at 665 nm and 620 nm (HTRF ratio). The HTRF ratio for positive (Max) and negative (Min) controls were used to normalize HTRF data and generate values for % activity. EC50 and Max activity values were determined using a standard 4-parameter fit.

SMILES	Emax	EC50
O=C(NCC(O)(CO)CO)C1CN(C(=O)Cc2ccc(OCCCC3CCN(c4ncc(Cl)cn4)CC3)cc2F)C1 [Example 30, 1-[2-[4-[3-[1-(5-chloropyrimidin-2-yl)-4-piperidyl]propoxy]-2-fluoro-phenyl]acetyl]-N-[2,3-dihydroxy-2-(hydroxymethyl)propyl]azetidine-3-carboxamide]	100 to 130%	≤ 100 nM
O=C(CC1CN(C(=O)Cc2ccc(OCCCC3CCN(c4ncc(Cl)cn4)CC3)cc2F)C1)NC(CO)(CO)CO [Example 32, 2-[1-[2-[4-[3-[1-(5-chloropyrimidin-2-yl)-4-piperidyl]propoxy]-2-fluoro-phenyl]acetyl]azetidin-3-yl]-N-[2-hydroxy-1,1-bis(hydroxymethyl)ethyl]acetamide]	100 to 130%	100 to 1000 nM
O=C(CC1CN(C(=O)Cc2ccc(OCCCC3CCN(c4ncc(Cl)cn4)CC3)cc2F)C1)NCC(O)(CO)CO [Example 33, 2-[1-[2-[4-[3-[1-(5-chloropyrimidin-2-yl)-4-piperidyl]propoxy]-2-fluoro-phenyl]acetyl]azetidin-3-yl]-N-[2,3-dihydroxy-2-(hydroxymethyl)propyl]acetamide]	≥ 130%	100 to 1000 nM
O=C(CC1CN(C(=O)Cc2c(F)cc(OCCCC3CCN(c4ncc(Cl)cn4)CC3)cc2F)C1)NCC(O)(CO)CO [Example 34, 2-[1-[2-[4-[3-[1-(5-chloropyrimidin-2-yl)-4-piperidyl]propoxy]-2,6-difluoro-phenyl]acetyl]azetidin-3-yl]-N-[2,3-dihydroxy-2-(hydroxymethyl)propyl]acetamide]	≥ 130%	≤ 100 nM
O=C(CCC1CN(C(=O)Cc2ccc(OCCCC3CCN(c4ncc(Cl)cn4)CC3)cc2F)C1)NCC(O)(CO)CO [Example 35, 3-[1-[2-[4-[3-[1-(5-chloropyrimidin-2-yl)-4-piperidyl]propoxy]-2-fluoro-phenyl]acetyl]azetidin-3-yl]-N-[2,3-dihydroxy-2-(hydroxymethyl)propyl]propanamide]	≥ 130%	≤ 100 nM
O=C(CCC1CN(C(=O)Cc2c(F)cc(OCCCC3CCN(c4ncc(Cl)cn4)CC3)cc2F)C1)NCC(O)(CO)CO [Example 36, 3-[1-[2-[4-[3-[1-(5-chloropyrimidin-2-yl)-4-piperidyl]propoxy]-2,6-difluoro-phenyl]acetyl]azetidin-3-yl]-N-[2,3-dihydroxy-2-(hydroxymethyl)propyl]propanamide]	100 to 130%	≤ 100 nM
CCCc1cnc(N2CCC(CCCOc3cc(F)c(CC(=O)N4CC(C(=O)NCCC[N+](C)(C)C)C4)c(F)c3)CC2)nc1 [Example 40, 3-[[1-[2-[2,6-difluoro-4-[3-[1-(5-propylpyrimidin-2-yl)-4-piperidyl]propoxy]phenyl]acetyl]azetidine-3-carbonyl]amino]propyl-trimethyl-ammonium formate]	100 to 130%	
O=C(NCC(O)(CO)CO)C1CCN(C(=O)Cc2ccc(OCCCC3CCN(c4ncc(Cl)cn4)CC3)cc2F)CC1 [Example 41, 1-[2-[4-[3-[1-(5-chloropyrimidin-2-yl)-4-piperidyl]propoxy]-2-fluoro-phenyl]acetyl]-N-[2,3-dihydroxy-2-(hydroxymethyl)propyl]piperidine-4-carboxamide]	100 to 130%	100 to 1000 nM
O=C(Cc1ccc(OCCCC2CCN(c3ncc(Cl)cn3)CC2)cc1F)N1CC(CNCC(O)(CO)CO)C1 [Example 43, 2-[4-[3-[1-(5-chloropyrimidin-2-yl)-4-piperidyl]propoxy]-2-fluoro-phenyl]-1-[3-[[[2,3-dihydroxy-2-(hydroxymethyl)propyl]amino]methyl]azetidin-1-yl]ethanone]	100 to 130%	≤ 100 nM
O=C(Cc1ccc(OCCCC2CCN(c3ncc(Cl)cn3)CC2)cc1F)N1CC(CNCC(CO)CO)C1 [Example 45, 2-[4-[3-[1-(5-chloropyrimidin-2-yl)-4-piperidyl]propoxy]-2-fluoro-phenyl]-1-[3-[[[3-hydroxy-2-(hydroxymethyl)propyl]amino]methyl]azetidin-1-yl]ethanone]	100 to 130%	≤ 100 nM
O=C(Cc1ccc(OCCCC2CCN(c3ncc(Cl)cn3)CC2)cc1F)N1CC(CN2C[C@@H](O)[C@@H](O)C2)C1 [Example 48, 2-[4-[3-[1-(5-chloropyrimidin-2-yl)-4-piperidyl]propoxy]-2-fluoro-phenyl]-1-[3-[[rac-(3S,4R)-3,4-dihydroxypyrrolidin-1-yl]methyl]azetidin-1-yl]ethanone]	100 to 130%	≤ 100 nM
O=C(Cc1ccc(OCCCC2CCN(c3ncc(Cl)cn3)CC2)cc1F)N1CC(CN2C[C@@H](O)[C@@H](O)[C@@H](O)C2)C1 [Example 50, 2-[4-[3-[1-(5-chloropyrimidin-2-yl)-4-piperidyl]propoxy]-2-fluoro-phenyl]-1-[3-[[rac-(3R,5S)-3,4,5-trihydroxy-1-piperidyl]methyl]azetidin-1-yl]ethanone]	100 to 130%	≤ 100 nM
O=C(Cc1ccc(OCCCC2CCN(c3ncc(Cl)cn3)CC2)cc1F)N1CC(CNCCOCCOCCO)C1 [Example 51, 2-[4-[3-[1-(5-chloropyrimidin-2-yl)-4-piperidyl]propoxy]-2-fluoro-phenyl]-1-[3-[[2-[2-(2-hydroxyethoxy)ethoxy]ethylamino]methyl]azetidin-1-yl]ethanone]	50 to 100%	≤ 100 nM
NCCOCCOCCNCC1CN(C(=O)Cc2ccc(OCCCC3CCN(c4ncc(Cl)cn4)CC3)cc2F)C1 [Example 52, 1-[3-[[2-[2-(2-aminoethoxy)ethoxy]ethylamino]methyl]azetidin-1-yl]-2-[4-[3-[1-(5-chloropyrimidin-2-yl)-4-piperidyl]propoxy]-2-fluoro-phenyl]ethanone]	100 to 130%	100 to 1000 nM
O=C(Cc1c(F)cc(OCCCC2CCN(c3ncc(Cl)cn3)CC2)cc1F)N1CC(CNC[C@H](O)[C@@H](O)[C@H](O)[C@H](O)CO)C1 [Example 53, 2-[4-[3-[1-(5-chloropyrimidin-2-yl)-4-piperidyl]propoxy]-2,6-difluoro-phenyl]-1-[3-[[[(2S,3R,4R,5R)-2,3,4,5,6-pentahydroxyhexyl]amino]methyl]azetidin-1-yl]ethanone]	≥ 130%	≤ 100 nM
O=C(Cc1ccc(OCCCCC2CCN(c3ncc(Cl)cn3)CC2)cc1F)N1CC(CNC[C@H](O)[C@@H](O)[C@H](O)[C@H](O)CO)C1 [Example 54, 2-[4-[4-[1-(5-chloropyrimidin-2-yl)-4-piperidyl]butoxy]-2-fluoro-phenyl]-1-[3-[[[(2S,3R,4R,5R)-2,3,4,5,6-pentahydroxyhexyl]amino]methyl]azetidin-1-yl]ethanone]	≥ 130%	100 to 1000 nM
O=C(Cc1c(F)cc(OCCCCC2CCN(c3ncc(Cl)cn3)CC2)cc1F)N1CC(CNC[C@H](O)[C@@H](O)[C@H](O)[C@H](O)CO)C1 [Example 55, 2-(4-(4-(1-(5-chloropyrimidin-2-yl)piperidin-4-yl)butoxy)-2,6-difluorophenyl)-1-(3-((((2S,3R,4R,5R)-2,3,4,5,6-pentahydroxyhexyl)amino)methyl)azetidin-1-yl)ethan-1-one]	≥ 130%	100 to 1000 nM
O=C(Cc1ccc(OCCCC2CCN(c3ncc(Cl)cn3)CC2)cc1F)N1CC(CCNC(CO)CO)C1 [Example 56, 2-(4-(3-(1-(5-chloropyrimidin-2-yl)piperidin-4-yl)propoxy)-2-fluorophenyl)-1-(3-(2-((1,3-dihydroxypropan-2-yl)amino)ethyl)azetidin-1-yl)ethan-1-one]	100 to 130%	≤ 100 nM
O=C(Cc1ccc(OCCCC2CCN(c3ncc(Cl)cn3)CC2)cc1F)N1CC(CCNCC(CO)CO)C1 [Example 57, 2-(4-(3-(1-(5-chloropyrimidin-2-yl)piperidin-4-yl)propoxy)-2-fluorophenyl)-1-(3-(2-((3-hydroxy-2-(hydroxymethyl)propyl)amino)ethyl)azetidin-1-yl)ethan-1-one]	100 to 130%	≤ 100 nM
O=C(Cc1ccc(OCCCC2CCN(c3ncc(Cl)cn3)CC2)cc1F)N1CC(CCNCC(O)(CO)CO)C1 [Example 58, 2-(4-(3-(1-(5-chloropyrimidin-2-yl)piperidin-4-yl)propoxy)-2-fluorophenyl)-1-(3-(2-((2,3-dihydroxy-2-(hydroxymethyl)propyl)amino)ethyl)azetidin-1-yl)ethan-1-one]	≥ 130%	100 to 1000 nM
O=C(Cc1ccc(OCCCC2CCN(c3ncc(Cl)cn3)CC2)cc1F)N1CC(CCNC(CO)(CO)CO)C1 [Example 59, 2-(4-(3-(1-(5-chloropyrimidin-2-yl)piperidin-4-yl)propoxy)-2-fluorophenyl)-1-(3-(2-((1,3-dihydroxy-2-(hydroxymethyl)propan-2-yl)amino)ethyl)azetidin-1-yl)ethan-1-one]	100 to 130%	100 to 1000 nM
